Laboratory results: PubChem BioAssay AID1985 (Southern Research Specialized Biocontainment Screening …, 2009)
pIC50: −log10 of the molar value.

These compounds were tested on S. Typhi PhoP-promoter GFP reporter, fluorescence, 4 h (assay: PhoP regulon inhibitor project modified counter assay, GFP fluorescence readout, dose response (AID 1985)).
For `O=C(CC(=O)c1ccccc1O)c1cccc(F)c1`, the pIC50 was 4.42.
`COC(=O)N/N=C/c1c[n+]([O-])c2ccccc2[n+]1[O-]` was tested, and the pIC50 was 4.00.
In the case of `O=C(Cc1ccccc1)NNC(=S)NC(=O)c1cccs1`, the pIC50 was 4.43.
Compound `Cc1nonc1C(=O)N/N=C/c1ccc([N+](=O)[O-])o1` has a pIC50 of 4.61.
Work on `CC1(C)N=C(N)N=C(N)N1c1ccc(Oc2ccc(Cl)cc2)c(Cl)c1` yielded a pIC50 of 4.37.
Compound `Cc1c(N=Cc2cc(Br)cc(Br)c2O)cccc1C(=O)O` has a pIC50 of 4.11.
`O=C(N/N=C/c1cccs1)c1ccc2nc[nH]c2c1` was tested, and the pIC50 was 3.87.
With `O=C(C[n+]1cc(-c2ccc(Cl)c(Cl)c2)n2c1CCC2)N1c2ccccc2Sc2ccccc21` the pIC50 was 4.11.
For `Cc1ccc(NC(=O)C(=O)NNC(=O)c2cccs2)cc1`, the pIC50 was 4.88.
Work on `CS(=O)(=O)c1ccc2nc(NC(=O)c3ccc(Cl)nc3)sc2c1` yielded a pIC50 of 4.09.
Compound `O=C(NC(C(=O)c1ccccc1)n1c(=O)cc[nH]c1=S)c1ccccc1` (stereo not drawn) has a pIC50 of 3.92.
In the case of `CN1CC=C(/C=C/c2ccc(-c3ccccc3)cc2)CC1`, the pIC50 was 4.02.
For `C/C(=N\NC(=O)c1ccc(CN2CCc3ccccc3C2)cc1)c1ccccc1O`, the pIC50 was 4.38.
`O=C(/C=C/c1ccccc1Cl)c1ccccc(=O)c1O` showed a pIC50 of 4.42.
`Clc1ccc(C[n+]2cc(-c3ccc(Cl)cc3)n3c2CCC3)cc1` gave a pIC50 of 4.00.
Work on `CCCCN(CCCC)C(=O)c1cn(CC)c2cc(N3CCN(C)CC3)c(F)cc2c1=O` yielded a pIC50 of 5.13.
With `O=C(Cn1nc(CNc2ccc(Br)cc2)[n+]2c1CCCCC2)c1ccc([N+](=O)[O-])cc1` the pIC50 was 4.10.
Compound `Cc1nc(N)nc(N)c1CCCc1ccc(Cl)c(Cl)c1` has a pIC50 of 4.37.
`COc1cc([N+](=O)[O-])cc(/C=N/NC(=O)C(C)Nc2cccc(C)c2)c1O` (stereo not drawn) was tested, and the pIC50 was 4.14.
With `O=C(CCN1CCN(c2ccccc2)CC1)c1ccc(Br)cc1` the pIC50 was 4.01.
`CN(C)CC/C=C1\c2ccc(F)cc2Sc2cc(F)c(Cl)cc21` was tested, and the pIC50 was 4.44.
With `C#CCOCCOCCOCCNc1nc(N2CCN(C(=O)CCCCCCCCCCNC(=O)[C@H](CCCCN)n3cc(C)nn3)CC2)nc(N2CCN(C(=O)CCCCCCCCCCNC(=O)[C@@H]([C@H](C)CC)n3cc(CCCCCN)nn3)CC2)n1` the pIC50 was 4.10.
Compound `O=C(Cn1nc(C(F)F)cc1C(F)F)NNC(=S)Nc1ccc([N+](=O)[O-])cc1` has a pIC50 of 4.19.
`CC[C@H]1OC(=O)[C@H](C)[C@@H](O[C@H]2C[C@@](C)(OC)[C@@H](O)[C@H](C)O2)[C@H](C)[C@@H](O[C@@H]2O[C@H](C)C[C@H](N(C)C)[C@H]2O)[C@](C)(O)C[C@@H](C)CN(C)[C@H](C)[C@@H](O)[C@]1(C)O` was tested, and the pIC50 was 5.63.
Work on `Clc1c(OCCCn2ccnc2)ccc2ccccc12` yielded a pIC50 of 3.83.
For `Clc1cccc(/C=N\Nc2nccs2)c1`, the pIC50 was 4.23.
Work on `Cc1ccc(S(=O)(=O)CCC(=O)c2ccc(O)cc2O)cc1` yielded a pIC50 of 4.16.
Compound `CC[C@H]1OC(=O)[C@H](C)[C@@H](O[C@H]2C[C@@](C)(OC)[C@@H](O)[C@H](C)O2)[C@H](C)[C@@H](O[C@@H]2O[C@H](C)C[C@H](N(C)C)[C@H]2O)[C@](C)(OC)C[C@@H](C)C(=O)[C@H](C)[C@@H](O)[C@]1(C)O` has a pIC50 of 3.90.
For `CO[C@H]1/C=C/O[C@@]2(C)Oc3c(C)c(O)c4c(O)c(c(C=NN5CCN(C)CC5)c(O)c4c3C2=O)NC(=O)/C(C)=C\C=C\[C@H](C)[C@H](O)[C@@H](C)[C@@H](O)[C@@H](C)[C@H](OC(C)=O)[C@@H]1C`, the pIC50 was 4.49.
Compound `CC(C)Oc1ccc(Cc2cnc(N)nc2N)cc1` has a pIC50 of 4.30.
Compound `O=CN/N=C/c1c(O)ccc2ccccc12` has a pIC50 of 4.31.
For `COc1c(N2CCN(C(=S)NC3CC4CCC3C4)C(C)C2)c(F)cc2c(=O)c(C(=O)O)cn(C3CC3)c12` (stereo not drawn), the pIC50 was 5.95.
`O=C(NNc1nc2ccc(F)cc2s1)c1cccc(F)c1` gave a pIC50 of 3.83.
With `O=C(Nc1ccc2nc(-c3ccc(Br)o3)[nH]c2c1)c1cccs1` the pIC50 was 4.10.
`COc1ccccc1Nc1c2ccccc2nc2ccccc12` gave a pIC50 of 4.09.
In the case of `Oc1c(CN2CCCCC2)cc(Br)c2cccnc12`, the pIC50 was 4.70.
`O=C(NC(=S)NNC(=O)c1ccccc1O)c1ccco1` gave a pIC50 of 4.62.
Compound `Nc1nc(Nc2ccccc2)nc2ccccc12` has a pIC50 of 4.25.
`CCc1ccc(NC(=O)C[n+]2cc(-c3ccc(C)cc3)n3c2CCC3)cc1` was tested, and the pIC50 was 4.16.
For `Oc1ccc(/C=N/Nc2nccnc2Cl)c(O)c1`, the pIC50 was 4.18.
Work on `Cc1ccc2sc(N(CCCN(C)C)C(=O)c3ccc(Br)s3)nc2c1C` yielded a pIC50 of 3.92.
`CC[C@H]1OC(=O)C[C@@H](O)[C@H](C)[C@@H](O[C@@H]2O[C@H](C)C[C@H](N(C)C)[C@H]2O)[C@@H](CC=O)C[C@@H](C)C(=O)C=C[C@]2(C)O[C@H]2[C@@H]1C` gave a pIC50 of 5.03.
For `O=C(NC1CCCCC1)c1ccc([N+](=O)[O-])o1`, the pIC50 was 4.40.
For `NC(=O)SCC(=O)Nc1cccc(Cl)c1`, the pIC50 was 4.52.
In the case of `O=C(N/N=C/c1c[nH]c2ccccc12)c1cc2ccccc2o1`, the pIC50 was 4.48.
Compound `COCCCNC(=S)NNC(=O)c1ccccn1` has a pIC50 of 4.59.
For `Nc1nonc1C(=O)NCCN=Cc1cc(Cc2ccccc2)cc(Br)c1O`, the pIC50 was 4.08.
Compound `O=C(N/N=C/c1cc([N+](=O)[O-])ccc1O)c1cccc2cc[nH]c12` has a pIC50 of 4.04.
For `CN1CCN(c2ccc(NC(=O)c3ccc(-c4ccc(Br)cc4)o3)cc2)CC1`, the pIC50 was 4.08.
In the case of `CN1CCC(OC(=O)c2cccc(Br)c2)CC1`, the pIC50 was 3.92.
For `CCCCn1c(NS(=O)(=O)c2ccccc2)c(C(=O)OCC)c2nc3ccccc3nc21`, the pIC50 was 3.96.
With `CCCCCCCCNc1ncnc2ccccc12` the pIC50 was 4.45.
In the case of `Cc1cccc(Nc2nc(NCc3ccco3)c3ccccc3n2)c1`, the pIC50 was 4.96.
`CCCCCCCCCCn1c2c(c(=N)c3c1CCC3)CCC2` gave a pIC50 of 3.84.
For `C/C(=N\N=C(N)N)c1ccc(Cl)c(Cl)c1`, the pIC50 was 4.29.
In the case of `COc1ccc2nc(NC(=O)C3CC(=O)N(c4ccccc4)C3)sc2c1` (stereo not drawn), the pIC50 was 3.97.
Compound `CCCCCCCCCCCCCCCC[N+](C)(C)CC` has a pIC50 of 4.65.
`CC(C)CCC(CCNCc1ccccn1)c1ccc(Cl)cc1` (stereo not drawn) gave a pIC50 of 4.10.
Compound `Clc1ccc(OCCCN2CCCC2)cc1Cl` has a pIC50 of 4.32.
`C/C(O)=C\c1nc2ccccc2oc1=O` was tested, and the pIC50 was 4.83.
`O=C(Nc1c(Cl)ccc2nsnc12)c1ccc([N+](=O)[O-])o1` gave a pIC50 of 4.25.
`CCn1cc(C(=O)O)c(=O)c2cc(F)c(N3CCN(C(=S)NC(=O)c4cc(OC)cc(OC)c4)CC3)cc21` gave a pIC50 of 5.51.
`COc1c(N2CCN(C(=S)NCc3ccccc3)C(C)C2)c(F)cc2c(=O)c(C(=O)O)cn(C3CC3)c12` (stereo not drawn) gave a pIC50 of 4.97.
`CN1CCN(c2cc3c(cc2F)c(=O)c(C(=O)O)cn3CCF)CC1` was tested, and the pIC50 was 6.35.
`O=C(NNC(=S)NC(=O)c1ccccc1)c1ccc(O)cc1` showed a pIC50 of 4.15.
With `CCOC(=O)c1c(N)sc(C(=O)Nc2ccc3c(c2)OCO3)c1C` the pIC50 was 3.86.
Work on `COc1cc(C(=O)N/N=C/c2ccc(OC(=O)c3cccc(C)c3)c(OC)c2)ccc1O` yielded a pIC50 of 4.68.
`Oc1c(Cl)cc(CN2CCCCC2)c2cccnc12` was tested, and the pIC50 was 4.83.
`CC1=NOC(=O)/C1=C/c1ccc(O)cc1` showed a pIC50 of 3.93.
Work on `CNC[C@H](Cc1ccccc1)NC[C@@H](Cc1cccc2ccccc12)NCCc1ccc(C)cc1` yielded a pIC50 of 4.71.
Compound `N#C/C(=C\c1ccc[nH]1)C(=O)NC1CC1` has a pIC50 of 4.20.
In the case of `O=C(Cn1nc(CNc2ccc(Cl)cc2)[n+]2c1CCCCC2)c1ccc(Br)cc1`, the pIC50 was 4.11.
In the case of `O=C(CC(=O)c1cc(Cl)ccc1O)c1ccccc1`, the pIC50 was 3.89.
In the case of `CCN(CC)c1ccc(CNc2nc3ccccc3n2CCN2CCCCC2)cc1`, the pIC50 was 3.84.
For `CCN1CCCC1CNC(=O)C1CCN(Cc2nc(-c3cccc(Br)c3)oc2C)CC1` (stereo not drawn), the pIC50 was 3.85.
For `C#CCOCCOCCOCCNc1nc(N2CCN(C(=O)[C@H](Cc3cc4ccccc4[nH]3)n3cc([C@@H](N)C(C)CC)nn3)CC2)nc(N2CCN(C(=O)[C@H](Cc3cc4ccccc4[nH]3)n3cc([C@@H](N)CC(C)C)nn3)CC2)n1` (stereo partly drawn), the pIC50 was 4.26.
`OCCN1CCN(C2CCC(c3ccc(F)cc3)c3ccc(F)cc32)CC1` (stereo not drawn) was tested, and the pIC50 was 4.17.
`C/C(=N\NC(=O)c1ccccc1O)c1cccs1` showed a pIC50 of 4.05.
`O=C(N/N=C\c1c[nH]c2ccccc12)c1ccc(O)cc1` gave a pIC50 of 3.87.
`O=C(NC(CO)Cc1ccc([N+](=O)[O-])cc1)C(Cl)Cl` (stereo not drawn) was tested, and the pIC50 was 5.34.
Work on `O=C(Oc1c(Cl)cc(Cl)c2cccnc12)c1cccc([N+](=O)[O-])c1` yielded a pIC50 of 5.29.
`O=C(NC(=S)NNC(=O)c1cccs1)c1ccco1` showed a pIC50 of 4.40.
For `CCC(C)NC(=O)c1cn(CC)c2cc(N3CCN(C)CC3)c(F)cc2c1=O` (stereo not drawn), the pIC50 was 4.42.
`Oc1c(C(Nc2ccccn2)c2cccnc2)cc(Cl)c2cccnc12` (stereo not drawn) gave a pIC50 of 4.47.
With `C#CCOCCOCCOCCNc1nc(N2CCN(C(=O)CCCCCCCCCCNC(=O)[C@H](CCCCN)n3cc(C)nn3)CC2)nc(N2CCN(C(=O)CCCCCCCCCCNC(=O)[C@H](CCCN=C(N)N)n3cc(C[C@@H](C)CC)nn3)CC2)n1` the pIC50 was 4.50.
With `NC1=NC2(CCCCC2)N=C(Nc2ccc(Br)cc2)N1` the pIC50 was 4.54.
With `O=C(Cc1cccs1)N/N=C\c1ccc([N+](=O)[O-])s1` the pIC50 was 4.70.
Work on `COc1ccc(-c2cnc(NCc3cc4c(cc3[N+](=O)[O-])OCO4)n2C)cc1` yielded a pIC50 of 3.97.
With `Clc1cccc(CN2CCc3c([nH]c4ccccc34)C2)c1Cl` the pIC50 was 3.98.
`O=C(Cn1cnc2ccccc21)Nc1ccc(SC(F)F)cc1` was tested, and the pIC50 was 4.11.
Work on `CCCCCCOC(=O)C[N+](C)(C)CCOC1CC2CCC1(C)C2(C)C` (stereo not drawn) yielded a pIC50 of 4.32.
In the case of `Cc1cccc(NC2=NC3(CCCCC3)N=C(N)N2)c1`, the pIC50 was 4.05.
`O=C(CN1CC(c2ccccc2)CC1=O)N/N=C/c1cc(Br)ccc1O` (stereo not drawn) gave a pIC50 of 4.33.
With `O=C(N/N=C/c1cc(Cl)ccc1O)c1ccncc1` the pIC50 was 4.66.
For `Cc1ccc(C(c2cc(Cl)c3cccnc3c2O)N2CCN(C)CC2)cc1` (stereo not drawn), the pIC50 was 4.32.
`COc1ccc(CNCC(O)COc2ccc(C(C)(C)c3ccccc3)cc2)cc1` (stereo not drawn) gave a pIC50 of 4.43.
`CCn1cc(C(=O)NCCO)c(=O)c2cc(F)c(N3CCN(C)CC3)cc21` was tested, and the pIC50 was 4.79.
In the case of `O=C(NC(=S)NNC(=O)c1ccco1)c1ccc(Br)cc1`, the pIC50 was 4.16.
`Cc1cc(N=Nc2ccc(C)c(N=Nc3cc(C)c(N)cc3N)c2)c(N)cc1N` was tested, and the pIC50 was 3.97.
`CCCCOc1ccc(CSC(=N)N)cc1Cl` was tested, and the pIC50 was 4.50.
Work on `Oc1ccc(C[C@H]2CNCCN2CCCCC2CCCCC2)cc1` yielded a pIC50 of 4.09.
`c1ccc(Nc2nc(NCc3ccco3)c3ccccc3n2)cc1` was tested, and the pIC50 was 4.62.
For `O=C(CNC(=O)c1cccc(F)c1)N/N=C/c1ccc([N+](=O)[O-])s1`, the pIC50 was 4.62.
With `Nc1nonc1C(=O)N/N=C/c1cc(Br)ccc1O` the pIC50 was 4.90.
Compound `O=C(N/N=C/c1ccccn1)c1ccc(Br)o1` has a pIC50 of 4.30.
`COc1cccc(Nc2cc(C)nc3ccccc23)c1` was tested, and the pIC50 was 4.01.
`Nc1cc(Cl)c2nonc2c1[N+](=O)[O-]` gave a pIC50 of 4.71.
With `CCCCOc1ccc(C(=O)NNC(=S)NC(=O)CC)cc1` the pIC50 was 4.41.
